Values of other authors, collected in US6548270B1, “DNA encoding human acid-sensing ion channel BNaC4 (ASIC4)” (Ortho-McNeil Pharmaceutical, Inc., priority 2000, dated 2003).

Tests used:
[1] = biological target: T1, ASIC1A (Rattus norvegicus, UniProt P55926); settings: read-out: Amiloride sensitivity, KD; cited from earlier work
T1 sequence (P55926 1-526): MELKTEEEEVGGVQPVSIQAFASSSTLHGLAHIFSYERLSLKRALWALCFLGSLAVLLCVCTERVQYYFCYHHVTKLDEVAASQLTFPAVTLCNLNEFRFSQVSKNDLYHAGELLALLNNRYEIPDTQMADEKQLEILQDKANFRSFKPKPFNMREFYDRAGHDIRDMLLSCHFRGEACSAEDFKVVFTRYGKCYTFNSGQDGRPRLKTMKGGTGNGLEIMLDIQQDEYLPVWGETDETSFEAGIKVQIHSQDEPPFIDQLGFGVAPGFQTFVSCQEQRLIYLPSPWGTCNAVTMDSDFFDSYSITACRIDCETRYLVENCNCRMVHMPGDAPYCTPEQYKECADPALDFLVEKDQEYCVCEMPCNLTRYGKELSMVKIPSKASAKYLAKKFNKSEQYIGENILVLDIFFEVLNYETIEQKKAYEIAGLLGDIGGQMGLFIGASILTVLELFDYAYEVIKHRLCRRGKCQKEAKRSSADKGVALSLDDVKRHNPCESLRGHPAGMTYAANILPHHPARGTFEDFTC

[2] = tested on: ASIC2a; settings: ASIC2a gain of function mutant channels; cited from earlier work
[3] = biological target: T2, MDEG1 + MDEG2 (Rattus norvegicus, UniProt Q62962); settings: 500 μM amiloride; cited from earlier work
T2 sequence (Q62962 1-512): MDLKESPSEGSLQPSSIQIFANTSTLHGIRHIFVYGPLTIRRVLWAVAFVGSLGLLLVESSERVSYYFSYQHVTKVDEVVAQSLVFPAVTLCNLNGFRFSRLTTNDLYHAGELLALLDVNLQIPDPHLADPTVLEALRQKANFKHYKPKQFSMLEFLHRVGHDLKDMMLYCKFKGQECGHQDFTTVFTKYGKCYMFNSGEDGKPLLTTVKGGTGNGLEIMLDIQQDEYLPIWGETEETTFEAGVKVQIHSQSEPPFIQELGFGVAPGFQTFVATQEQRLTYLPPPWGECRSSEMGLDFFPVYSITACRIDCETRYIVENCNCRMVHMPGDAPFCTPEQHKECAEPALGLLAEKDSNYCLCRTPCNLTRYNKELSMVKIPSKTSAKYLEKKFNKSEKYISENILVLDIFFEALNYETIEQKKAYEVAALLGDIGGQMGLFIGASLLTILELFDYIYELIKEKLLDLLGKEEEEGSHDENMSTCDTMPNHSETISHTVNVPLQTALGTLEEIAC
T2 sequence (Q62962 1-563 isoform Q62962-2): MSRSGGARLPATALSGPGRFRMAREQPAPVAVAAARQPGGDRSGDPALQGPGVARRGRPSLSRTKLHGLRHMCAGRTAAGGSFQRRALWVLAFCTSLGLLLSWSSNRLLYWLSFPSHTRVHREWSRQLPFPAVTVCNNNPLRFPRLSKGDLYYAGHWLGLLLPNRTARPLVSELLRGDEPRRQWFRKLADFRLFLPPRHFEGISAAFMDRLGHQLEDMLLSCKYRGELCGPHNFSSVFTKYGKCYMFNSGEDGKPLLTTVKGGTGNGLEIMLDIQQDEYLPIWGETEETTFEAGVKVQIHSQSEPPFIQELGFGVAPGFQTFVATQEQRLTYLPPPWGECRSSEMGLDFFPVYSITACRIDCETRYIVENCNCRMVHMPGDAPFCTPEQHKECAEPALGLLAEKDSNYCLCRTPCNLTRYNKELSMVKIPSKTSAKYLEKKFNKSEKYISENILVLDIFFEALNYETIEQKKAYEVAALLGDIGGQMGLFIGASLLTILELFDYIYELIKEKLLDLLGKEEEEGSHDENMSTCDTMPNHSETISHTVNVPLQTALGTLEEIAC

[4] = biological target: T3, Rat ASIC3 (Rattus norvegicus, UniProt O35240); settings: cited from earlier work
T3 sequence (O35240 1-533): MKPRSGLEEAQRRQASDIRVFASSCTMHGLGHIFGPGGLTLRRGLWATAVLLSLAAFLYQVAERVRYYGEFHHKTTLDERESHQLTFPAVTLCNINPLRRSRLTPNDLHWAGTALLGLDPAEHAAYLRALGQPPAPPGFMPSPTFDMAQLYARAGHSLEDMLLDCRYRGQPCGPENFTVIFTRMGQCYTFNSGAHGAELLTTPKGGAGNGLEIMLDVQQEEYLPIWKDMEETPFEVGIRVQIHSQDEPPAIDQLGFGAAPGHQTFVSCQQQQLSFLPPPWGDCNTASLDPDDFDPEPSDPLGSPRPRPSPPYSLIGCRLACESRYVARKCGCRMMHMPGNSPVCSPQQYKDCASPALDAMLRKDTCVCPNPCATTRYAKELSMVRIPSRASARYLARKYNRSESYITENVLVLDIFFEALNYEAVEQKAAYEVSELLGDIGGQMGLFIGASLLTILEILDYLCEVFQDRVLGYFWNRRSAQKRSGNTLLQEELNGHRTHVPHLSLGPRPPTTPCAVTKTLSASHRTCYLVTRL

SMILES: N=C(N)NC(=O)c1nc(Cl)c(N)nc1N [amiloride]
- Kd [1]: ~10 µM
- Amiloride sensitivity (block of channels) [2]: Amiloride blocked gain of function
- Amiloride sensitivity (block) [3]: MDEG1 + MDEG2 completely
- IC50 ([4]; rat ASIC3 fast component, read-out: Amiloride sensitivity, K0.5, fast component): ~60 µM
- effect of amiloride on slow component ([4]; rat ASIC3 slow component): potentiated by amiloride (Waldmann
